In patent US7049311B1, “Pyrrolbenzodiazepines” (Spirogen Limited, priority 1998, dated 2006):
Where two headings read alike, the source gives them in different places.

Legend:
[1] = test system: CH1; assay: Ovarian carcinoma cytotoxicity assay; type: cell-based; details: Homo sapiens
Protocol: (§1) Compounds of the invention (and Anthramycin as a comparison) were evaluated for their cytotoxic activity in ovarian cell lines by Dr Lloyd R. Kelland's group at The Institute of Cancer Research, Sutton, UK. The five cell lines investigated were SKOV-3, A2780/A2780cisR and CH1/CH1cisR (cis R denotes that the cell line is resistant to cisplatin).
(§2) Single viable cells were seeded in growth medium (160 μL) in […] microtitre plates and allowed to attach overnight. […] After 96 hours, the medium was removed and the remaining cells fixed by exposure to 10% trichloroacetic acid on ice for 30 minutes. The wells were then washed 3-4 times with tap water, air dried overnight and treated with 100 μL of sulphorhodamine B (0.4%) dissolved in 1% acetic acid. Staining was allowed to continue for 10-15 minutes, then the wells were washed 3-4 times with 1% acetic acid, air dried and then added to Tris base (100 μL of 10 mM). Plates were then shaken and absorbance readings at 540 nm were determined using a plate reader. By using the Quattro-Pro software package, the IC50 values were calculated from plots of concentration versus percentage absorbance (compared with 8 untreated wells).

[2] = test system: CH1cisR; assay: Ovarian carcinoma cytotoxicity assay; type: cell-based; details: Homo sapiens, CH1cisR; cisplatin-resistant, 96 hours, sulphorhodamine B; read-out: IC50 CH1cisR
Protocol: as §1, §2

[3] = test system: SKOV-3; assay: Ovarian carcinoma cytotoxicity assay; type: cell-based; details: Homo sapiens, SK-OV-3; 96 hours, sulphorhodamine B; read-out: IC50 Skov3
Protocol: as §1, §2

[4] = test system: A2780; assay: Ovarian carcinoma cytotoxicity assay; type: cell-based, human; details: Homo sapiens, A2780; 96 hours, sulphorhodamine B; read-out: IC50 A2780
Protocol: as §1, §2

[5] = test system: A2780cisR; assay: Ovarian carcinoma cytotoxicity assay; type: cell-based, human; details: Homo sapiens, A2780cisR
Protocol: as §1, §2

[6] = test system: LOX IMVI; assay: NCI in vitro cytotoxicity screen; type: cell-based; details: Homo sapiens, 48 h, read-out: LC50
Protocol: (§3) The National Cancer Institute (NCI), Bethesda, Md., USA has available an in vitro cytotoxicity screen which consists of approximately 60 human tumour cell lines against which compounds are tested at a minimum of five concentrations each differing 10-fold. A 48 hour continuous exposure protocol is used, where cell viability or growth is estimated with an SRB protein assay.
(§4) The test compounds were evaluated against approximately 60 human tumour cell lines. The NCI screening procedures were described in detail by Monks and co-workers (Monks, A et al., Journal of the National Cancer Institute, 1991, 83, 757). Briefly, cell suspensions were diluted according to the particular cell type and the expected target cell density (5000-40,000 cells per well based on cell growth characteristics), and added by pipette (100 μL) into 96-well microtitre plates. The cells were allowed a preincubation period of 24 hours at 37° C. for stabilisation. Dilutions at twice the intended test concentration were added at time zero in 100 μL aliquots to the wells. The test compounds were evaluated at five 10-fold dilutions (10^−4, 10^−5, 10^−6, 10^−7 and 10^−[…]). The test compounds were incubated for 48 hours in 5% CO2 atmosphere and 100% humidity. The cells were then assayed using the sulphorhodamine B assay. A plate reader was used to read the optical densities and a microcomputer processed the readings into LC50 values, which is the dosage required to kill half of the cells.

[7] = test system: MALME-3M; assay: NCI in vitro cytotoxicity screen; type: cell-based; details: Homo sapiens, Malme-3M, 48 h, read-out: LC50
Protocol: as §3, §4

[8] = test system: RXF 393; assay: NCI in vitro cytotoxicity screen; type: cell-based; details: Homo sapiens, RXF 393, 48 h, read-out: LC50
Protocol: as §3, §4

[9] = test system: NCI-H522; assay: NCI in vitro cytotoxicity screen; type: cell-based; details: Homo sapiens, NCI-H522, 48 h, read-out: LC50
Protocol: as §3, §4

[10] = test system: MDA-N; assay: NCI in vitro cytotoxicity screen; type: cell-based; details: Homo sapiens, 48 h, read-out: LC50
Protocol: as §3, §4

[11] = test system: SK-MEL-28; assay: NCI in vitro cytotoxicity screen; type: cell-based; details: Homo sapiens, SK-MEL-28, 48 h, read-out: LC50
Protocol: as §3, §4

[12] = test system: SK-MEL-2; assay: NCI in vitro cytotoxicity screen; type: cell-based; details: Homo sapiens, SK-MEL-2, 48 h, read-out: LC50
Protocol: as §3, §4

[13] = test system: M14; assay: NCI in vitro cytotoxicity screen; type: cell-based; details: Homo sapiens, M14, 48 h, read-out: LC50
Protocol: as §3, §4

[14] = test system: MDA-MB-435; assay: NCI in vitro cytotoxicity screen; type: cell-based; details: Homo sapiens, MDA-MB-435, 48 h, read-out: LC50
Protocol: as §3, §4

[15] = test system: HCT-116; assay: NCI in vitro cytotoxicity screen; type: cell-based; details: Homo sapiens, HCT-116, 48 h, read-out: LC50
Protocol: as §3, §4

[16] = test system: 786-0; assay: NCI in vitro cytotoxicity screen; type: cell-based; details: Homo sapiens, 786-0, 48 h, read-out: LC50
Protocol: as §3, §4

[17] = test system: NCI-H460; assay: NCI in vitro cytotoxicity screen; type: cell-based; details: Homo sapiens, NCI-H460, 48 h, read-out: LC50
Protocol: as §3, §4

[18] = test system: HCC-2998; assay: NCI in vitro cytotoxicity screen; type: cell-based; details: Homo sapiens, HCC 2998, 48 h, read-out: LC50
Protocol: as §3, §4

[19] = test system: SK-MEL-5; assay: NCI in vitro cytotoxicity screen; type: cell-based; details: Homo sapiens, SK-MEL-5, 48 h, read-out: LC50
Protocol: as §3, §4

[20] = test system: SF-539; assay: NCI in vitro cytotoxicity screen; type: cell-based; details: Homo sapiens, SF-539, 48 h, read-out: LC50
Protocol: as §3, §4

[21] = test system: COLO 205; assay: NCI in vitro cytotoxicity screen; type: cell-based; details: Homo sapiens, COLO 205, 48 h, read-out: LC50
Protocol: as §3, §4

[22] = test system: UACC-62; assay: NCI in vitro cytotoxicity screen; type: cell-based; details: Homo sapiens, UACC-62, 48 h, read-out: LC50
Protocol: as §3, §4

[23] = test system: NCI-H226; assay: NCI in vitro cytotoxicity screen; type: cell-based; details: Homo sapiens, NCI-H226, 48 h, read-out: LC50
Protocol: as §3, §4

[24] = test system: KM12; assay: NCI in vitro cytotoxicity screen; type: cell-based; details: Homo sapiens
Protocol: as §3, §4

[25] = test system: SNB-75; assay: NCI in vitro cytotoxicity screen; type: cell-based; details: Homo sapiens, SNB-75, 48 h, read-out: LC50
Protocol: as §3, §4

[26] = test system: HS 578T; assay: NCI in vitro cytotoxicity screen; type: cell-based; details: Homo sapiens; HS 578T (Breast), 48 hour exposure, SRB assay; read-out: LC50 (the source's name)
Protocol: as §3, §4

[27] = test system: human tumour cells cultivated in hollow fibres implanted in mice; assay: NCI Hollow Fibre Assay; type: in vivo
Source text: The Biological testing Branch of the Developmental Therapeutics Program of the NCI has adopted a preliminary in vivo screening tool for assessing the potential anticancer activity of compounds identified by the large scale in vitro cell screen. For these assays, human tumour cells are cultivated in polyvinylidene (PVDF) hollow fibres, and a sample of each cell line is implanted into each of two physiologic compartments (intraperitoneal and subcutaneaous) in mice. Each test mouse received a total of 6 fibres (3 intraperitoneally and 3 subcutaneously) representing 3 distinct cancer cell lines. These mice are treated with potential antitumour compounds at each of 2 test doses by the intraperitoneal route using a QD×4 treatment schedule. Vehicle controls consist of 6 mice receiving the compound diluent only. The fibre cultures are collected on the day following the last day of treatment. To assess anticancer effects, the viable cell mass is determined for each of the cell lines using a formazyn dye (MTT) conversion assay. From this, the % T/C can be calculated using the average optical density of compound treated samples divided by the average optical; density of the vehicle controls. In addition, the net increase in cell mass can be determined for each sample, as a sample of fibre cultures are assessed for viable cell mass on the day of implantation into mice. Thus, the cytostatic and cytocidal capacities of the test compound can be assessed.
Generally, each compound is tested against a minimum of 12 human cancer cell lines. This represents a total of 4 experiments since each experiment contains 3 cell lines. The data are reported as % T/C for each of the 2 compound doses against each of the cell lines with separate values calculated for the intraperitoneal and subcutaneous samples.
Compounds are selected for further in vivo testing in standard subcutaneous xenograft models on the basis of several hollow fibre assay criteria. These include: (1) a % T/C of 50 or less in 10 of the 48 possible test combinations (12 cell lines×2 sites×2 Compound doses); (2) activity at a distance (intraperitoneal drug/subcutaneous culture) in a minimum of 4 of the 24 possible combinations; and/or (3) a net cell kill of 1 or more of the cell lines in either implant site. To simplify evaluation, a points system has been adopted which allows rapid evaluation of the activity of a given compound. For this, a value of 2 is assigned for each compound dose which results in a 50% or greater reduction in viable cell mass. The intraperitoneal and subcutaneous samples are scored separately so that criteria (1) and (2) can be evaluated. Compounds with a combined IP+SC score of 20, a SC score of 8 or a net cell kill of one or more cell lines are referred for xenograft testing. […] In addition to these criteria, other factors (e.g. unique structure, mechanism of action) may result in referral of a compound for xenograft testing without the compound meeting these criteria.

[28] = test system: NCI-H23; assay: NCI in vitro cytotoxicity screen; type: cell-based; details: Homo sapiens, NCI-H23, 48 h, read-out: LC50
Protocol: as §3, §4

[29] = test system: UACC-257; assay: NCI in vitro cytotoxicity screen; type: cell-based; details: Homo sapiens, UACC-257, 48 h, read-out: LC50
Protocol: as §3, §4

[30] = CH1, 96 hours, sulphorhodamine B, read-out: IC50 CH1
[31] = cisplatin-resistant, 96 hours, sulphorhodamine B, read-out: IC50 A2780cisR

Structure (SMILES) | IC50 [1, 30] | IC50 [2] | IC50 [3] | IC50 [4] | IC50 [5, 31] | CC50 [7] | CC50 [8] | CC50 [9] | CC50 [10] | CC50 [11] | CC50 [12] | CC50 [13] | CC50 [14] | CC50 [18] | CC50 [19] | CC50 [21] | CC50 [22] | also measured
COc1ccc2c(c1)C(=O)N1CCC[C@H]1C=N2 (stereo in doubt) [UP2068 (96), 7-methoxy-1,2,3,11a-tetrahydro-5H-pyrrolo[2,1-c][1,4]benzodiazepin-5-one] | 0.52 µM | 0.42 µM | 0.76 µM | 0.47 µM | 0.66 µM | 8.3 µM | 6.3 µM | 8.5 µM | 6.3 µM | 9.6 µM | 8.1 µM | 6.5 µM | 8.3 µM |  |  |  |  | CC50 [6]: 9.7 µM
COc1cc2c(cc1OCc1ccccc1)N=C[C@@H]1CC(CCO)=CN1C2=O [UP2052 (33)] |  | 0.037 µM | 0.105 µM | 0.07 µM |  |  |  | 3.1 µM |  |  | 0.5 µM | 2.7 µM |  | 0.8 µM |  |  |  | IC50 ([1]; CH1, 96 h, read-out: IC50 CH1, 96 hours, sulphorhodamine B): 0.09 µM; IC50 ([5]; 96 h, read-out: IC50 A2780cisR, cisplatin-resistant, 96 hours, sulphorhodamine B): 0.105 µM; CC50 [15]: 1.1 µM; CC50 [16]: 3 µM; CC50 [17]: 3 µM
C=C1C[C@H]2C=Nc3ccc(I)cc3C(=O)N2C1 [UP2023 (64), (11as)-7-Iodo-2-methylidene-1,2,3,11a-tetrahydro-5H-pyrrolo[2,1-c][1,4]benzodiazepin-5-one] | 0.37 µM | 0.43 µM | 16 µM | 0.49 µM | 1.45 µM | 7.8 µM | 6.1 µM | 5.2 µM | 6.6 µM | 8.4 µM | 7.4 µM |  | 7.6 µM | 7 µM | 6 µM | 5.8 µM | 7.2 µM | CC50 [20]: 9.4 µM; CC50 [23]: 9.1 µM; CC50 ([24]; KM12, 48 h, read-out: LC50): 7.1 µM
Nc1ccc2c(c1)N=C[C@@H]1CCCN1C2=O [UP2028 (151), (11aS)-8-amino-1,2,3,11a-tetrahydro-5H-pyrrolo[2,1-c][1,4]benzodiazepin-5-one] |  |  |  |  |  | 5.7 µM | 0.7 µM | 0.8 µM |  | 8.1 µM | 5.4 µM |  | 7.2 µM |  |  | 5 µM |  | CC50 [25]: 8.2 µM; CC50 [26]: 9.2 µM; CC50 ([24]; KM12 (Colon), 48 hour exposure, SRB assay, read-out: LC50 (the source's name)): 8.8 µM
C=C1C[C@H]2C=Nc3cc(OCc4ccccc4)c(OC)cc3C(=O)N2C1 [UP2004 (70), (11aS)-8-Benzyloxy-7-methoxy-2-methylidene-1,2,3,11a-tetrahydro-5H-pyrrolo[2,1-c][1,4]benzodiazepin-5-one] | 0.017 µM | 0.082 µM | 0.35 µM | 0.029 µM | 0.2 µM |  |  |  | 9 µM |  |  |  |  | 5.5 µM | 7.8 µM | 3.9 µM | 5.3 µM | Total score ([27]; combined IP+SC score): 18; IP score ([27]; intraperitoneal fibres, 2 points per dose giving 50% or greater reduction in viable cell mass): 8; SC score ([27]; subcutaneous fibres, 2 points per dose giving 50% or greater reduction in viable cell mass): 10; CC50 [28]: 7.6 µM; CC50 [29]: 7.3 µM
